We go through eleven compounds from ChEMBL document CHEMBL1201862, “PubChem BioAssay data set” (2004).

Molecules are shown by their SMILES.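 96-well plates; 48 h exposure; 5 concentrations. Endpoints by linear interpolation between flanking doses. Not reached: highest tested concentration assigned. GI50 is the concentration that inhibits growth by half.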 Activity calls are given as the source filed them. No stated cut-off is given here; in the data, active = GI50 up to about 1.1 µM and inactive = higher.

Some test systems named below: 786-0; A498; ACHN; CAKI-1; DU-145; EKVX; HCT-116; MCF7; MDA-MB-435; MOLT-4; OVCAR-3; OVCAR-4; PC-3; SK-MEL-28; SK-MEL-2; SK-MEL-5; SK-OV-3; UACC-257; NCI-H226; TK-10.
What all share (test): NCI anticancer screen, dose series, 48 h

Regarding `COc1ccc2cc(C(=O)NCCCNC(=O)c3ccc4c(OC)c(OC)ccc4c3)ccc2c1OC`, the GI50 with 786-0, in the assay with A498, with ACHN, in the assay on CAKI-1, in the assay with DU-145 and in the assay on EKVX was > 100 µM (inactive) each time. In addition, the GI50 with HCT-116, with MCF7, in the assay with MDA-MB-435, in the assay with MOLT-4, in the assay with OVCAR-3 and in the assay on OVCAR-4 was > 100 µM (inactive) throughout. Also, the GI50 in the assay on PC-3, with SK-MEL-28, with SK-MEL-2, in the assay with SK-MEL-5, in the assay on SK-OV-3 and with UACC-257 was > 100 µM (inactive) throughout.
For `COC(=O)C1C(C(=O)OC)N(Cc2ccccc2)C(=O)N1Cc1ccccc1` (centres undefined), the GI50 is > 100 µM (inactive) in the assay with ACHN; 99.5 µM (inactive) with CAKI-1; > 100 µM (inactive) with DU-145; > 100 µM (inactive) in the assay on EKVX; > 100 µM (inactive) in the assay on HCT-116; 7.5 µM (inactive) in the assay on MCF7. Further, the GI50 is > 100 µM (inactive) in the assay on MDA-MB-435; 22.8 µM (inactive) in the assay with MOLT-4; > 100 µM (inactive) with NCI-H226; 61.8 µM (inactive) in the assay with OVCAR-3; > 100 µM (inactive) in the assay with OVCAR-4; > 100 µM (inactive) with PC-3. The GI50 in the assay on SK-MEL-28 is > 100 µM (inactive); in the assay with SK-MEL-2 it was > 100 µM (inactive); with SK-MEL-5 it was 58.5 µM (inactive); with SK-OV-3 it was 53.8 µM (inactive); in the assay with TK-10, > 100 µM (inactive); in the assay on UACC-257 it was 76 µM (inactive).
Consider `CN1C(C)(C)CC(=O)C(Br)C1(C)C` (centres undefined), for which the GI50 was > 100 µM (inactive) with 786-0; > 100 µM (inactive) in the assay on ACHN; > 100 µM (inactive) in the assay with CAKI-1; > 100 µM (inactive) in the assay on DU-145; > 100 µM (inactive) with EKVX; > 10 µM (inactive) with HCT-116. For the same compound, the GI50 with MCF7, in the assay on MDA-MB-435, in the assay with MOLT-4, in the assay on NCI-H226, in the assay with OVCAR-3 and in the assay with OVCAR-4 was > 100 µM (inactive) in each case. Also, the GI50 in the assay on PC-3, with SK-MEL-28, in the assay on SK-MEL-2, with SK-MEL-5, in the assay on SK-OV-3 and with TK-10 was > 100 µM (inactive) each time. The GI50 in the assay with UACC-257 is > 100 µM (inactive).
For `CCOC(=O)/C=C/c1nc(C#N)c(N)o1`, the GI50 in the assay on 786-0, in the assay with A498, in the assay with ACHN, in the assay on CAKI-1, in the assay on DU-145 and in the assay on EKVX was > 100 µM (inactive) throughout. Also, the GI50 with HCT-116, in the assay with MCF7, with MDA-MB-435, with MOLT-4, in the assay on PC-3 and in the assay on SK-MEL-28 was > 100 µM (inactive) throughout. The GI50 in the assay on SK-MEL-2, with SK-MEL-5, in the assay on SK-OV-3, in the assay with TK-10 and in the assay on UACC-257 was > 100 µM (inactive) throughout.
Regarding `COc1c(C(=O)/C(=N/Nc2cccc(Cl)c2)C(C)=O)c(O)c(OC)c2occc12`, the GI50 in the assay on 786-0 was > 100 µM (inactive); in the assay with ACHN, 70 µM (inactive); with CAKI-1, > 100 µM (inactive); in the assay with DU-145, > 100 µM (inactive); in the assay on EKVX, 78.7 µM (inactive); in the assay on HCT-116, > 100 µM (inactive). The GI50 was > 100 µM (inactive) in the assay on MCF7; > 100 µM (inactive) in the assay with MDA-MB-435; 39.5 µM (inactive) with MOLT-4; > 100 µM (inactive) with NCI-H226; > 100 µM (inactive) in the assay with OVCAR-3; 53.5 µM (inactive) in the assay on PC-3. The GI50 with SK-MEL-28, in the assay on SK-MEL-2, in the assay on SK-MEL-5, in the assay with SK-OV-3, in the assay on TK-10 and with UACC-257 was > 100 µM (inactive) each time.
On to `CC(=O)O[C@H]1CC[C@H]2[C@@H]3CCC4=C/C(=N/OCCN(C)C)CC[C@]4(C)[C@H]3CC[C@]12C`, for which the GI50 with 786-0 was 8.17 µM (inactive); in the assay with ACHN, 13.4 µM (inactive); in the assay on CAKI-1, 14 µM (inactive); with DU-145 it was 16.1 µM (inactive); in the assay with EKVX, 14.4 µM (inactive); in the assay with HCT-116, 4.25 µM (inactive). The GI50 with MCF7 is 5.64 µM (inactive); in the assay on MDA-MB-435, 2.19 µM (inactive); in the assay on MOLT-4 it was 5.42 µM (inactive); in the assay with NCI-H226, 3.8 µM (inactive); with OVCAR-3, 12.8 µM (inactive); in the assay on OVCAR-4 it was 10.9 µM (inactive). The GI50 in the assay with PC-3 was 12.5 µM (inactive); in the assay with SK-MEL-28, 14.6 µM (inactive); in the assay on SK-MEL-2 it was 11 µM (inactive); with SK-MEL-5, 4.58 µM (inactive); in the assay with SK-OV-3, 12.2 µM (inactive); in the assay on TK-10, 11.3 µM (inactive). Besides, the GI50 with UACC-257 was 7.38 µM (inactive).
Turning to `CC(C)CC(C(N)=O)C(=O)NC(Cc1ccccc1)NC(=O)CNC(=O)C(C)NC(=O)C(N)Cc1ccc(O)cc1` (centres undefined), the GI50 with 786-0, in the assay on ACHN, in the assay with CAKI-1, in the assay with DU-145, in the assay with EKVX and in the assay with HCT-116 was > 100 µM (inactive) throughout. Besides, the GI50 with MCF7, with MDA-MB-435, in the assay on MOLT-4, in the assay on NCI-H226, in the assay with OVCAR-3 and in the assay on OVCAR-4 was > 100 µM (inactive) in each case. Besides, the GI50 in the assay with PC-3, in the assay on SK-MEL-28, in the assay on SK-MEL-2, with SK-MEL-5, in the assay on SK-OV-3 and in the assay on TK-10 was > 100 µM (inactive) throughout. For the same compound, the GI50 with UACC-257 was > 100 µM (inactive).
Regarding `CC(=O)c1ccc(NCN2C(=O)c3ccccc3C2=O)cc1`, the GI50 in the assay with 786-0, in the assay with A498, with ACHN, in the assay on CAKI-1, with DU-145 and with EKVX was > 100 µM (inactive) each time. Further, the GI50 with HCT-116, in the assay with MCF7, in the assay with MDA-MB-435, with MOLT-4, with OVCAR-3 and with OVCAR-4 was > 100 µM (inactive) each time. The GI50 in the assay on PC-3, with SK-MEL-28, with SK-MEL-2, with SK-MEL-5, in the assay on SK-OV-3 and in the assay on TK-10 was > 100 µM (inactive) each time. Besides, the GI50 in the assay with UACC-257 was > 100 µM (inactive).
Take `CCOC(=O)C1C(=O)C=C(c2cc(C)ccc2O)CC1c1cccc(Cl)c1` (centres undefined): the GI50 in the assay with 786-0 was 36.6 µM (inactive); with ACHN it was 19.7 µM (inactive); in the assay with CAKI-1 it was 30.7 µM (inactive); in the assay on DU-145 it was 50.1 µM (inactive); in the assay on EKVX, 30.1 µM (inactive); in the assay with HCT-116, 34 µM (inactive). Moreover, the GI50 is 19.5 µM (inactive) in the assay on MCF7; 2.78 µM (inactive) in the assay with MDA-MB-435; 22.6 µM (inactive) in the assay on MOLT-4; 24.5 µM (inactive) in the assay with NCI-H226; 32 µM (inactive) with OVCAR-3; 17.5 µM (inactive) in the assay with OVCAR-4. In addition, the GI50 was 11.5 µM (inactive) in the assay with PC-3; 16.7 µM (inactive) in the assay on SK-MEL-2; 19.2 µM (inactive) with SK-MEL-5; 20 µM (inactive) in the assay on SK-OV-3; 20.3 µM (inactive) with TK-10; 2.12 µM (inactive) with UACC-257.
`NS(=O)(=O)c1ccc(-n2c(-c3cccs3)nc3ccc(I)cc3c2=O)cc1`: the GI50 in the assay with 786-0 is 28.7 µM (inactive); in the assay on ACHN, 21.4 µM (inactive); with CAKI-1 it was 19.4 µM (inactive); in the assay with DU-145, 18.8 µM (inactive); with EKVX it was 25.1 µM (inactive); in the assay on HCT-116, 17.3 µM (inactive). Further, the GI50 was 23.3 µM (inactive) in the assay on MCF7; 18.9 µM (inactive) in the assay on MDA-MB-435; 52.8 µM (inactive) in the assay on MOLT-4; 27.4 µM (inactive) with NCI-H226; 16 µM (inactive) with OVCAR-3; 24.7 µM (inactive) with OVCAR-4. In addition, the GI50 with PC-3 is 26.6 µM (inactive); in the assay with SK-MEL-28 it was 17.3 µM (inactive); in the assay on SK-MEL-5, 23.7 µM (inactive); in the assay on SK-OV-3 it was 22.6 µM (inactive); with TK-10 it was 25.4 µM (inactive); in the assay on UACC-257 it was 0.0522 µM (active).
`COc1ccc(-c2oc3cc(OC(C)=O)cc(OC(C)=O)c3c(=O)c2OC)cc1`: the GI50 is 21.7 µM (inactive) with A498; 17 µM (inactive) in the assay with ACHN; 4.04 µM (inactive) in the assay on CAKI-1; 15.5 µM (inactive) with DU-145; 13.9 µM (inactive) with EKVX; 21 µM (inactive) in the assay on HCT-116. Moreover, the GI50 in the assay on MCF7 was 20.7 µM (inactive); in the assay with MDA-MB-435, 10.4 µM (inactive); with MOLT-4, 20.2 µM (inactive); in the assay on OVCAR-3, 15 µM (inactive); in the assay on PC-3, 17.9 µM (inactive); in the assay with SK-MEL-28 it was 13.7 µM (inactive). Further, the GI50 with SK-MEL-5 is 12.4 µM (inactive); in the assay with SK-OV-3 it was 28.8 µM (inactive); in the assay on TK-10 it was 21.8 µM (inactive); with UACC-257, 19.7 µM (inactive).
